Experimental data reported in the kinase profiling compilation of Christmann-Franck et al. (2016).

Assays:
Assay in all cases: radiometric filter-binding kinase assay, Kinase HotSpot
Conditions in all cases: compound 0.5 µM; ATP 10 µM
CAMK1G (human) = CAMK1G (human) (UniProt Q96NX5)
AURKA (human) = AURKA (human) (UniProt O14965)
NEK7 (human) = NEK7 (human) (UniProt Q8TDX7)
STK4 (human) = STK4 (human) (UniProt Q13043)
MST1R (human) = MST1R (human) (UniProt Q04912)
PDGFRA (human) = PDGFRA (human) (UniProt P16234)
RPS6KA4 KD2 (human) = RPS6KA4 KD2 (human) (UniProt O75676)
EGFR (human) = EGFR (human) (UniProt P00533)
CAMKK2 (human) = CAMKK2 (human) (UniProt Q96RR4)
LIMK1 (human) = LIMK1 (human) (UniProt P53667)
STK39 (human) = STK39 (human) (UniProt Q9UEW8)
FYN (human) = FYN (human) (UniProt P06241)
CSF1R (human) = CSF1R (human) (UniProt P07333)
MAP3K2 (human) = MAP3K2 (human) (UniProt Q9Y2U5)
MARK1 (human) = MARK1 (human) (UniProt Q9P0L2)
EPHA7 (human) = EPHA7 (human) (UniProt Q15375)
CAMKK1 (human) = CAMKK1 (human) (UniProt Q8N5S9)
PAK3 (human) = PAK3 (human) (UniProt O75914)
AKT2 (human) = AKT2 (human) (UniProt P31751)
FLT3 (human) = FLT3 (human) (UniProt P36888)
YES1 (human) = YES1 (human) (UniProt P07947)
PKN1 (human) = PKN1 (human) (UniProt Q16512)
EPHA5 (human) = EPHA5 (human) (UniProt P54756)
MAPKAPK3 (human) = MAPKAPK3 (human) (UniProt Q16644)
STK3 (human) = STK3 (human) (UniProt Q13188)
MUSK (human) = MUSK (human) (UniProt O15146)
CDK5 CDK5R1 p25 (human) = CDK5 CDK5R1 p25 (human) (UniProt Q00535+Q15078)
STK25 (human) = STK25 (human) (UniProt O00506)
MAPKAPK5 (human) = MAPKAPK5 (human) (UniProt Q8IW41)
ADRBK1 (human) = ADRBK1 (human) (UniProt P25098)
HIPK3 (human) = HIPK3 (human) (UniProt Q9H422)
GSK3A (human) = GSK3A (human) (UniProt P49840)
ROCK1 (human) = ROCK1 (human) (UniProt Q13464)
NEK9 (human) = NEK9 (human) (UniProt Q8TD19)
GSG2 (human) = GSG2 (human) (UniProt Q8TF76)
MAPK1 (human) = MAPK1 (human) (UniProt P28482)
EPHA3 (human) = EPHA3 (human) (UniProt P29320)
SIK2 (human) = SIK2 (human) (UniProt Q9H0K1)
MAP3K7 TAB1 (human) = MAP3K7 TAB1 (human) (UniProt O43318+Q15750)
GSK3B (human) = GSK3B (human) (UniProt P49841)
PDPK1 (human) = PDPK1 (human) (UniProt O15530)
Chain of PDPK1 (human) (O15530 whole entry, looked up): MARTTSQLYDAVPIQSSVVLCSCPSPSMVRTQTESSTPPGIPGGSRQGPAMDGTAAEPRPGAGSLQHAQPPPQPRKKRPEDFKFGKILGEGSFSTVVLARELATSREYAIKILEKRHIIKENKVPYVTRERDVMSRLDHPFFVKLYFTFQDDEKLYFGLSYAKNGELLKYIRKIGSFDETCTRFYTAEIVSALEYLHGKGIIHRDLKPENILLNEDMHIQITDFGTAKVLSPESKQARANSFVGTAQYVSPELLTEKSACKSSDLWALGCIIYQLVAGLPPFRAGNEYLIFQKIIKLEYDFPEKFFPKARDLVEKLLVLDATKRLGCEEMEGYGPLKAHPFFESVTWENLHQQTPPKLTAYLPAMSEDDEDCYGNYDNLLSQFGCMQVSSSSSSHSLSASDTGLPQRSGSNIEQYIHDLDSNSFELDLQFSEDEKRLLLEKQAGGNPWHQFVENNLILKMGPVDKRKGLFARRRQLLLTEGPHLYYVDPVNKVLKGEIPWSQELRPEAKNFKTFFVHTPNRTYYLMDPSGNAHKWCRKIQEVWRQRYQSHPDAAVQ

Chain of EGFR (human) (P00533 whole entry, looked up): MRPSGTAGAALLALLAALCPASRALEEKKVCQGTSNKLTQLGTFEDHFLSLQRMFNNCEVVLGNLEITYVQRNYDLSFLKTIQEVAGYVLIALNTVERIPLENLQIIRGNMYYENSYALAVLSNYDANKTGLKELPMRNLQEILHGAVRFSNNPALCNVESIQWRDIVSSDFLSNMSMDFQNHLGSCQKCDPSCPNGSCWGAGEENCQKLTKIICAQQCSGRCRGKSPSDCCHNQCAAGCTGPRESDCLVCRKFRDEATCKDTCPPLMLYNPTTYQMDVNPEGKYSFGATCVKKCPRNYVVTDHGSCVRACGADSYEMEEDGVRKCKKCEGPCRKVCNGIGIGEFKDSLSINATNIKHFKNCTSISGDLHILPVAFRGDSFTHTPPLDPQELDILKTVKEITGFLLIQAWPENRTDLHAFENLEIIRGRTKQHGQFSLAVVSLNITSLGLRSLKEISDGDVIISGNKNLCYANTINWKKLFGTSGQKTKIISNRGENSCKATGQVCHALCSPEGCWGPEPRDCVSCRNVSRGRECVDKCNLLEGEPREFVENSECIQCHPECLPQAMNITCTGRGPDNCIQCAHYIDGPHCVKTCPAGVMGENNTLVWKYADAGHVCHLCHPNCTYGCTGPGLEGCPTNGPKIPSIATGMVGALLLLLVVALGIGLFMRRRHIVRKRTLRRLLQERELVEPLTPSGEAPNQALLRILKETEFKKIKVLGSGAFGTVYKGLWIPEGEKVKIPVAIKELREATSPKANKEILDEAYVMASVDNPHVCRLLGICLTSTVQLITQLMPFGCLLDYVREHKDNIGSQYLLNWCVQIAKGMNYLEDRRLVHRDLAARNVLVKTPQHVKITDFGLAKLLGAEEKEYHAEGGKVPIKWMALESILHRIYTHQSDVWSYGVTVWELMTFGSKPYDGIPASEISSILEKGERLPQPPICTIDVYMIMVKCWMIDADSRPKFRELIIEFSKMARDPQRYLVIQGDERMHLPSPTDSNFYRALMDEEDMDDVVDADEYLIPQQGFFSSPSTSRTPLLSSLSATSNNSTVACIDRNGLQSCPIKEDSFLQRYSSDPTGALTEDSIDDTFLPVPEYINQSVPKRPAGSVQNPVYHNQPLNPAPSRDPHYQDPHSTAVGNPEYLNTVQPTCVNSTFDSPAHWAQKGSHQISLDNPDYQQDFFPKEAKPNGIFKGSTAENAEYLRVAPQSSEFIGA
Chain of MUSK (human) (O15146 whole entry, looked up): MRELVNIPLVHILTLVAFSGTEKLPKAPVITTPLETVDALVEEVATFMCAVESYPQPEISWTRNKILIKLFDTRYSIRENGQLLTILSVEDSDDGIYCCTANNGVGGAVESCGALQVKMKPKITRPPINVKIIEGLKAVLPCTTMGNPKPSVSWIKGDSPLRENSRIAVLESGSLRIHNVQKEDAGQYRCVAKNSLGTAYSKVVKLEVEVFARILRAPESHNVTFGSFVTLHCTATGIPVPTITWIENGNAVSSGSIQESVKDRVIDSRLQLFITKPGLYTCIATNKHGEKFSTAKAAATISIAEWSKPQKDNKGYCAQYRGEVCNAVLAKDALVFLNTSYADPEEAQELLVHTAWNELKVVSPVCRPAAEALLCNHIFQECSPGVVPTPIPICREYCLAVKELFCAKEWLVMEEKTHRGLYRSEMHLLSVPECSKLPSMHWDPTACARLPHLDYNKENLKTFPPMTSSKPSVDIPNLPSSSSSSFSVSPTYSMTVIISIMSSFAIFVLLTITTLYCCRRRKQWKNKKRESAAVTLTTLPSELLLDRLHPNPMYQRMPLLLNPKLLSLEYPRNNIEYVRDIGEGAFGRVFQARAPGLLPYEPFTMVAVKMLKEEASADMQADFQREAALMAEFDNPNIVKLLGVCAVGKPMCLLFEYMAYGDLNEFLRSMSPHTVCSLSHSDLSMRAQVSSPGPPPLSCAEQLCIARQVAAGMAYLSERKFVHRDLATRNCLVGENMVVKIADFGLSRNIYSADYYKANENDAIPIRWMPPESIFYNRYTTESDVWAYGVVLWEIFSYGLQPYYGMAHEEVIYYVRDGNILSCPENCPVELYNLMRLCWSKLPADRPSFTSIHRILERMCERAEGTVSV
Chain of ROCK1 (human) (Q13464 whole entry, looked up): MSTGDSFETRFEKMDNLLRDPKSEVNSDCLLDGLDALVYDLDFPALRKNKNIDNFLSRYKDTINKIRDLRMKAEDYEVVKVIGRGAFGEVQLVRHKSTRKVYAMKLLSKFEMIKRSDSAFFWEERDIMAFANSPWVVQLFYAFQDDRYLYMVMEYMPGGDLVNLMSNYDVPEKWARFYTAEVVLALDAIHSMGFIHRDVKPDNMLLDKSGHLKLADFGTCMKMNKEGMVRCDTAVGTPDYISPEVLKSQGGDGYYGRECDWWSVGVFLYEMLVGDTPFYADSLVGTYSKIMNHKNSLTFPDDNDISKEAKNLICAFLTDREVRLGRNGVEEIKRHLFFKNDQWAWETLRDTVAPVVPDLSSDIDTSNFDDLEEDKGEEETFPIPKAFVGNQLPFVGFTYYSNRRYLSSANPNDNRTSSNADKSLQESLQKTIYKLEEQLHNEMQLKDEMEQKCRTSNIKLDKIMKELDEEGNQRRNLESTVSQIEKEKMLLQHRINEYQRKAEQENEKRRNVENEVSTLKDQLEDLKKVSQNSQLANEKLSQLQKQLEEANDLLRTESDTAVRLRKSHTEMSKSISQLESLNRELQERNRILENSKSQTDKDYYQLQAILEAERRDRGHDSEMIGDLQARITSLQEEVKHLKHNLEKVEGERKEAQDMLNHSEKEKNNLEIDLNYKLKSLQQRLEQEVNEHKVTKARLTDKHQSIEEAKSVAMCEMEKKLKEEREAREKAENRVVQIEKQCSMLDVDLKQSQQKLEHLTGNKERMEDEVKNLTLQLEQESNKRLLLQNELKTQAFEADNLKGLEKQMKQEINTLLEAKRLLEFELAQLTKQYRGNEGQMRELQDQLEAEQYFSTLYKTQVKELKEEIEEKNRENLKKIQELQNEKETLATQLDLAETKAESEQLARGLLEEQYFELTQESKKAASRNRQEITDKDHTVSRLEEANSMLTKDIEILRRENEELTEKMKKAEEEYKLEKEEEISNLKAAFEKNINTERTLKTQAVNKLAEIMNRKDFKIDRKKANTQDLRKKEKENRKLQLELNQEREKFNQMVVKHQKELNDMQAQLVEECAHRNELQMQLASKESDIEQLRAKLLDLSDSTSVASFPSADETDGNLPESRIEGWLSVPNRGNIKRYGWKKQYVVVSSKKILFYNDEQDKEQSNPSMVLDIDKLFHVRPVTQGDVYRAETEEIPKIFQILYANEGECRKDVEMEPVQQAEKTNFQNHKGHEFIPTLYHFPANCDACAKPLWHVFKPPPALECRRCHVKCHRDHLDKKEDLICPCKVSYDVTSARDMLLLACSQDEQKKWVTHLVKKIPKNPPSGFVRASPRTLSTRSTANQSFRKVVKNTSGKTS
Chain of MAP3K7 TAB1 (human) (O43318 whole entry, looked up): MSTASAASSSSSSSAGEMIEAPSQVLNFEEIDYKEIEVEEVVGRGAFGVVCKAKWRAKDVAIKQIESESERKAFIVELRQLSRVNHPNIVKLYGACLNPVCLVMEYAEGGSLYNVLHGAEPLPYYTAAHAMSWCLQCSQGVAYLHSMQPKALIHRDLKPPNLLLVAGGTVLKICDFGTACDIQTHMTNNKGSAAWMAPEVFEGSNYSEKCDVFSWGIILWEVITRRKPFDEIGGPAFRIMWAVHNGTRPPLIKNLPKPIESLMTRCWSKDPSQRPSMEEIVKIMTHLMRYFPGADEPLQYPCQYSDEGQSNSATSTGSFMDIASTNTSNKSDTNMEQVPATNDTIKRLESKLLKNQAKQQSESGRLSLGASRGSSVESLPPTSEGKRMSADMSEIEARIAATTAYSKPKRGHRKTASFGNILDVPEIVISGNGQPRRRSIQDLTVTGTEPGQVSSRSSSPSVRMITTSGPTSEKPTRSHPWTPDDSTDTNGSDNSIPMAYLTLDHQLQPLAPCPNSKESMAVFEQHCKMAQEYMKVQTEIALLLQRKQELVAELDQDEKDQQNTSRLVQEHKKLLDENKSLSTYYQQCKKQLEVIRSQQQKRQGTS
Chain of MAP3K7 TAB1 (human) (Q15750 whole entry, looked up): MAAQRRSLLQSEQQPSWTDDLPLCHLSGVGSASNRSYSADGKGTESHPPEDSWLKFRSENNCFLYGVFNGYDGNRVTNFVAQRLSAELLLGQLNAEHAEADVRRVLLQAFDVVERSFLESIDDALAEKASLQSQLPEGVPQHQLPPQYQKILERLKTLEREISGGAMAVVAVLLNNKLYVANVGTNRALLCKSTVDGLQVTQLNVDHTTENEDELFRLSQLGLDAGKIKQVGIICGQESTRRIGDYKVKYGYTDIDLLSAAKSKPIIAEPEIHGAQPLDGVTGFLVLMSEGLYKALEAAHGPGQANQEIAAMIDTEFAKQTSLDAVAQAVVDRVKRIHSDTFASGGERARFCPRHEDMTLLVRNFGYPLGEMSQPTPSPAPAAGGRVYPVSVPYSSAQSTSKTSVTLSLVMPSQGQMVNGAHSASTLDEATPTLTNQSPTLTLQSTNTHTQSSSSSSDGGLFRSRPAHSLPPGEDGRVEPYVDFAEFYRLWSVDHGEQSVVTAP

With `O=c1cc(N2CCOCC2)oc2c1ccc1ccccc12` the residual activity (CAMK1G (human)) was 102%, the residual activity (AURKA (human)) was 98% and the residual activity (NEK7 (human)) was 96.6%. The residual activity (STK4 (human)) was 99.5%, the residual activity (MST1R (human)) was 103% and the residual activity (PDGFRA (human)) was 83.9%. The residual activity (RPS6KA4 KD2 (human)) was 99.4%, the residual activity (EGFR (human)) was 96.2% and the residual activity (CAMKK2 (human)) was 104%. It also gave a residual activity (LIMK1 (human)) of 98%, a residual activity (STK39 (human)) of 95.7% and a residual activity (FYN (human)) of 113%. It also gave a residual activity (CSF1R (human)) of 103%, a residual activity (MAP3K2 (human)) of 109% and a residual activity (MARK1 (human)) of 99.5%. The residual activity (EPHA7 (human)) was 98.6%, the residual activity (CAMKK1 (human)) was 112% and the residual activity (PAK3 (human)) was 102%. For the same compound, the residual activity (AKT2 (human)) was 98.9%, the residual activity (FLT3 (human)) was 104% and the residual activity (YES1 (human)) was 98.7%. For the same compound, the residual activity (PKN1 (human)) was 106%, the residual activity (EPHA5 (human)) was 110% and the residual activity (MAPKAPK3 (human)) was 105%. For the same compound, the residual activity (STK3 (human)) was 99.1%, the residual activity (MUSK (human)) was 75.6% and the residual activity (CDK5 CDK5R1 p25 (human)) was 98.9%. For the same compound, the residual activity (STK25 (human)) was 94.8%, the residual activity (MAPKAPK5 (human)) was 98.4% and the residual activity (ADRBK1 (human)) was 98.9%. The residual activity (HIPK3 (human)) was 107%, the residual activity (GSK3A (human)) was 97.1% and the residual activity (ROCK1 (human)) was 94.2%. The residual activity (NEK9 (human)) was 102%, the residual activity (GSG2 (human)) was 85.6% and the residual activity (MAPK1 (human)) was 104%. The residual activity (EPHA3 (human)) was 112%, the residual activity (SIK2 (human)) was 126% and the residual activity (MAP3K7 TAB1 (human)) was 98.3%. For the same compound, the residual activity (GSK3B (human)) was 124% and the residual activity (PDPK1 (human)) was 109%.

With `COc1ccc(COc2ccc(Cc3cnc(N)nc3N)cc2OC)cc1` the residual activity (CAMK1G (human)) was 98.3%, the residual activity (AURKA (human)) was 105% and the residual activity (NEK7 (human)) was 100%. It also gave a residual activity (STK4 (human)) of 106%, a residual activity (MST1R (human)) of 104% and a residual activity (PDGFRA (human)) of 99.4%. For the same compound, the residual activity (RPS6KA4 KD2 (human)) was 107%, the residual activity (EGFR (human)) was 96.9% and the residual activity (CAMKK2 (human)) was 103%. For the same compound, the residual activity (LIMK1 (human)) was 94.5%, the residual activity (STK39 (human)) was 87.6% and the residual activity (FYN (human)) was 102%. The residual activity (MAP3K2 (human)) was 108%, the residual activity (MARK1 (human)) was 103% and the residual activity (EPHA7 (human)) was 101%. For the same compound, the residual activity (CAMKK1 (human)) was 115%, the residual activity (PAK3 (human)) was 102% and the residual activity (AKT2 (human)) was 102%. It also gave a residual activity (FLT3 (human)) of 103%, a residual activity (YES1 (human)) of 94.8% and a residual activity (PKN1 (human)) of 101%. The residual activity (EPHA5 (human)) was 111%, the residual activity (MAPKAPK3 (human)) was 96% and the residual activity (STK3 (human)) was 98.4%. The residual activity (MUSK (human)) was 102%, the residual activity (CDK5 CDK5R1 p25 (human)) was 103% and the residual activity (STK25 (human)) was 97%. The residual activity (MAPKAPK5 (human)) was 87.5%, the residual activity (ADRBK1 (human)) was 96.1% and the residual activity (HIPK3 (human)) was 102%. It also gave a residual activity (GSK3A (human)) of 108%, a residual activity (ROCK1 (human)) of 100% and a residual activity (NEK9 (human)) of 93.3%. For the same compound, the residual activity (GSG2 (human)) was 97.7%, the residual activity (MAPK1 (human)) was 110% and the residual activity (EPHA3 (human)) was 109%. It also gave a residual activity (SIK2 (human)) of 98.6%, a residual activity (MAP3K7 TAB1 (human)) of 97.9% and a residual activity (GSK3B (human)) of 97.8%. The residual activity (PDPK1 (human)) was 89.4%.

Compound `O=C(Nc1cccc(Nc2nccc(Nc3cccc(C(F)(F)F)c3)n2)c1)C1CC1` has a residual activity (CAMK1G (human)) of 98.8%, a residual activity (NEK7 (human)) of 116% and a residual activity (STK4 (human)) of 83.1%. For the same compound, the residual activity (MST1R (human)) was 92.6%, the residual activity (PDGFRA (human)) was 89.3% and the residual activity (RPS6KA4 KD2 (human)) was 104%. The residual activity (EGFR (human)) was 87.6%, the residual activity (CAMKK2 (human)) was 99.5% and the residual activity (LIMK1 (human)) was 45.1%. For the same compound, the residual activity (STK39 (human)) was 94.1%, the residual activity (FYN (human)) was 54.1% and the residual activity (CSF1R (human)) was 63.1%. For the same compound, the residual activity (MAP3K2 (human)) was 91.6%, the residual activity (MARK1 (human)) was 104% and the residual activity (EPHA7 (human)) was 112%. The residual activity (CAMKK1 (human)) was 97.9%, the residual activity (PAK3 (human)) was 98.9% and the residual activity (AKT2 (human)) was 107%. The residual activity (FLT3 (human)) was 73.1%, the residual activity (YES1 (human)) was 78.9% and the residual activity (PKN1 (human)) was 93.3%. The residual activity (EPHA5 (human)) was 96.2%, the residual activity (MAPKAPK3 (human)) was 93% and the residual activity (STK3 (human)) was 96%. The residual activity (MUSK (human)) was 101%, the residual activity (CDK5 CDK5R1 p25 (human)) was 99% and the residual activity (STK25 (human)) was 98.1%. It also gave a residual activity (MAPKAPK5 (human)) of 91.9%, a residual activity (ADRBK1 (human)) of 84.7% and a residual activity (HIPK3 (human)) of 104%. It also gave a residual activity (GSK3A (human)) of 95%, a residual activity (ROCK1 (human)) of 101% and a residual activity (NEK9 (human)) of 102%. For the same compound, the residual activity (GSG2 (human)) was 101%, the residual activity (MAPK1 (human)) was 89% and the residual activity (EPHA3 (human)) was 105%. It also gave a residual activity (SIK2 (human)) of 103%, a residual activity (MAP3K7 TAB1 (human)) of 87.4% and a residual activity (GSK3B (human)) of 101%. For the same compound, the residual activity (PDPK1 (human)) was 104%.
